# Data taken from ChEMBL document CHEMBL5055658, “Discovery of a Highly Potent and Selective Degrader Targeting Hematopoietic Prostaglandin D Synthase via In Silico Design” (J Med Chem, 2021).
# Calls of active or inactive are those of the source. The rule behind the calls is not given here.
# Assays:
# KU812 [1] = experiment: Suppression of PGD2 production in human KU812 cells measured in presence of compound 43 up to 3000 pM incubated for 6 hrs by LC-MS analysis; format: functional, cell-based
# [2] = molecular target: Hematopoietic prostaglandin D synthase (Homo sapiens, UniProt O60760); experiment: Inhibition of H-PGDS (unknown origin) using fluorescent probe by competition binding assay
# [3] = molecular target: T1, Protein cereblon/Hematopoietic prostaglandin D synthase (Homo sapiens, UniProt O60760+Q96SW2); experiment: PROTAC activity at H-PGDS/CRBN in human KU812 cells assessed as H-PGDS degradation measured after 6 hrs by Western blot analysis; format: cell-based; conditions: for DC50: ku812 cell line
# [4] = molecular target: T1, Protein cereblon/Hematopoietic prostaglandin D synthase; experiment: PROTAC activity at H-PGDS/CRBN in human KU812 cells assessed as H-PGDS degradation measured after 24 hrs by Western blot analysis; format: cell-based; conditions: KU812 cell line
# Target sequence in this assay (O60760 whole entry, looked up): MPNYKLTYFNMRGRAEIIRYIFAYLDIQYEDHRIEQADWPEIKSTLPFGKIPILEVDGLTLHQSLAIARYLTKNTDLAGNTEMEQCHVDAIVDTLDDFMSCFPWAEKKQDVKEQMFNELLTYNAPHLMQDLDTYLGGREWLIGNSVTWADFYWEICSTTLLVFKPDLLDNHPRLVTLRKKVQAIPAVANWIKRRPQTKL
# Target sequence in this assay (Q96SW2 whole entry, looked up): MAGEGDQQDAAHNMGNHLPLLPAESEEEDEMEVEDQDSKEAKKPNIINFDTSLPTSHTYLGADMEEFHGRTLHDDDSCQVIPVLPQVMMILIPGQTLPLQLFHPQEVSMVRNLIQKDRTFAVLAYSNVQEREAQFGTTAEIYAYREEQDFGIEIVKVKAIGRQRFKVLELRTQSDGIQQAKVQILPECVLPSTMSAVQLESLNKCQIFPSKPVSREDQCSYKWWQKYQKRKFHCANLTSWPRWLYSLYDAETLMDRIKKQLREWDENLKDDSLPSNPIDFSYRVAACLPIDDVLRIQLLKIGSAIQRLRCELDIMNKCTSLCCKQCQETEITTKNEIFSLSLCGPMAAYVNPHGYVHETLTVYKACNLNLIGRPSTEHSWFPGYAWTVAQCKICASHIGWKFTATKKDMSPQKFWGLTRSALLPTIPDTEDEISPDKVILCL
# [5] = molecular target: T1, Protein cereblon/Hematopoietic prostaglandin D synthase; experiment: PROTAC activity at H-PGDS/CRBN in human MEG01s cells assessed as H-PGDS degradation measured after 6 to 24 hrs by Western blot analysis; format: cell-based; conditions: time 6-24 hrs
# Target sequence in this assay (O60760 whole entry, looked up): as the sequence (O60760 whole entry, looked up) above
# Target sequence in this assay (Q96SW2 whole entry, looked up): as the sequence (Q96SW2 whole entry, looked up) above
# KU812 [6] = experiment: Effect on H-PGDS mRNA level in human KU812 cells measured up to 10000 pM incubated for 6 hrs by quantitative RT-PCR analysis; format: functional, cell-based
# [7] = molecular target: T1, Protein cereblon/Hematopoietic prostaglandin D synthase; experiment: PROTAC activity at H-PGDS/CRBN in human KU812 cells assessed as H-PGDS degradation in presence of pomalidomide measured after 6 hrs by Western blot analysis; format: cell-based; conditions: KU812 cell line
# Target sequence in this assay (O60760 whole entry, looked up): as the sequence (O60760 whole entry, looked up) above
# Target sequence in this assay (Q96SW2 whole entry, looked up): as the sequence (Q96SW2 whole entry, looked up) above
# [8] = molecular target: T1, Protein cereblon/Hematopoietic prostaglandin D synthase; experiment: PROTAC activity at H-PGDS/CRBN in human KU812 cells assessed as H-PGDS degradation in presence of MG132 at 100 pM measured after 6 hrs by Western blot analysis; format: cell-based; conditions: KU812 cell line
# Target sequence in this assay (O60760 whole entry, looked up): as the sequence (O60760 whole entry, looked up) above
# Target sequence in this assay (Q96SW2 whole entry, looked up): as the sequence (Q96SW2 whole entry, looked up) above
# [9] = molecular target: T1, Protein cereblon/Hematopoietic prostaglandin D synthase; experiment: PROTAC activity at H-PGDS/CRBN in human KU812 cells assessed as H-PGDS degradation in presence of MLN7243 at 100 pM measured after 6 hrs by Western blot analysis; format: cell-based; conditions: KU812 cell line
# Target sequence in this assay (O60760 whole entry, looked up): as the sequence (O60760 whole entry, looked up) above
# Target sequence in this assay (Q96SW2 whole entry, looked up): as the sequence (Q96SW2 whole entry, looked up) above
# [10] = molecular target: T1, Protein cereblon/Hematopoietic prostaglandin D synthase; experiment: PROTAC activity at H-PGDS/CRBN in human KU812 cells assessed as reduction in H-PGDS level at 100 pM measured after 6 hrs by Western blot analysis relative to control; format: cell-based; set-up: scale not given: the % may be the effect or the level left; conditions: KU812 cell line
# Target sequence in this assay (O60760 whole entry, looked up): as the sequence (O60760 whole entry, looked up) above
# Target sequence in this assay (Q96SW2 whole entry, looked up): as the sequence (Q96SW2 whole entry, looked up) above
# [11] = molecular target: T1, Protein cereblon/Hematopoietic prostaglandin D synthase; experiment: PROTAC activity at H-PGDS/CRBN in human KU812 cells assessed as reduction in H-PGDS level at 10 pM measured after 6 hrs by Western blot analysis relative to control; format: cell-based; set-up: scale not given: the % may be the effect or the level left; conditions: KU812 cell line
# Sequence of Hematopoietic prostaglandin D synthase (O60760 whole entry): as the sequence (O60760 whole entry, looked up) above
SMILES,IC50 [2] [nM],DC50 [3] [nM],inhibition [2],Activity (KU812 [1]),further results
Nc1cccc2c1C(=O)N(C1CCC(=O)NC1=O)C2=O (stereo not given),–,–,–,inactive,–
CN1C(=O)CCC(N2C(=O)c3cccc(N4CCN(C(=O)C5CCN(c6ccc(NC(=O)c7cnc(Oc8ccccc8)nc7)cc6)CC5)CC4)c3C2=O)C1=O (stereo not given),140,0.024,–,Active,–
O=C1CCC(N2C(=O)c3cccc(NCCNC(=O)C4CCN(c5ccc(NC(=O)c6cnc(Oc7ccccc7)nc6)cc5)CC4)c3C2=O)C(=O)N1 (stereo not given),–,–,inactive,–,–
O=C1CCC(N2C(=O)c3cccc(N4CCN(c5ccc(NC(=O)c6cnc(Oc7ccccc7)nc6)cc5)CC4)c3C2=O)C(=O)N1 (stereo not given),–,–,inactive,–,Activity ([3]; KU812 cell line): inactive

# More lines, main results first:
IC50 [2] [nM],DC50 [3] [nM],inhibition [2],SMILES,Activity (KU812 [1]),further results
170,–,–,O=C(Nc1ccc(N2CCC(C(=O)N3CCOCC3)CC2)cc1)c1cnc(Oc2ccccc2)nc1,Active,–
170,0.0173,–,O=C1CCC(N2C(=O)c3cccc(N4CCN(C(=O)C5CCN(c6ccc(NC(=O)c7cnc(Oc8ccccc8)nc7)cc6)CC5)CC4)c3C2=O)C(=O)N1 (stereo not given),Active,Activity [4]: inactive; Activity [5]: Active; Activity (KU812 [6]): inactive; Activity [7]: inactive; Activity [8]: inactive; Activity [9]: inactive; Activity [10]: 30.8%; Activity [11]: 12.9%
